The subject of assay [1] is reactive oxygen species (ROS) production in Kiwi 'Hayward' leaf petioles. The assay is described as follows: ROS activity assay in kiwi leaf petioles. Format: cell-based, Actinidiae deliciosa. The settings on record: 100 nM peptide. How it is done:
To test the sensitivity of kiwi leaves to 22-amino acid fragments of flagellin, 1 mm slices were cut through Actinidiae deliciosa Kiwi ‘Hayward’ leaf petioles and floated in 150 μL of water in a 96-well plate, with one slice per well. […] In two independent experiments, a total of 6 kiwi leaf petiole samples were treated with each Flg22 polypeptide in Table 94. The average total RLU and standard error of the means (SEM) was calculated for each treatment. A two-tailed T-test was used to determine significance at the 90% confidence level (P<0.1) between treatments. Relative ROS production was determined for each polypeptide in comparison to total RLUs for the 100 nM Bt.4Q7Flg22 control.

The subject of assay [2] is Pseudomonas syringae pv. actinidiae (PSA-V). The assay is described as follows: PSA-V leaf spot in potted kiwi plants. The format is in vivo.
The subject of assay [3] is reactive oxygen species (ROS) production in corn tissue. The experiment in a line: ROS activity assay in corn tissue (luminol/horseradish peroxidase, RLU). The settings on record: Table 33; 5 nM polypeptide; RLU relative to native Bt.4Q7Flg22 = 100.
Assay [4] deals with reactive oxygen species (ROS) production in soybean leaf tissue. The experiment in a line: ROS activity assay in soybean leaf tissue (luminol/horseradish peroxidase, RLU). Format: cell-based. As to conditions: Table 33; 100 nM polypeptide; RLU relative to native Bt.4Q7Flg22 = 100.
For assay [5], the system named is reactive oxygen species (ROS) production in tomato leaf tissue. The assay is described as follows: ROS activity assay in tomato leaf tissue. Format: cell-based. The procedure: Tomato leaves were excised from 4-week-old plants using a cork borer to generate 4 mm disks. Each disc was cut in half using the edge of a razor blade, and then each disc half was floated on 150 μL of water in a 96-well plate to rest overnight. The next day, the water was removed from each well just prior to polypeptide treatment. The Flg polypeptides as described in Table 66 were added to water to bring them to a final concentration of 5 nM (Table 67) and 100 nM (Table 68) in solution with luminol and HRP before adding to each treatment well. To maintain activity, the polypeptides were stored in small aliquots to avoid multiple freezing and thawing. All dilutions to obtain working concentrations were done in ultrapure water. Polypeptide solutions were stored at −20° C. for short term usage or −80° C. for long term storage. RLU values and relative ROS activity (Tables 67, 68) is reported as the average of 4 measurements.

The subject of assay [6] is Agrobacterium tumefaciens strain GV3101. The assay is described as follows: Growth of Agrobacterium tumefaciens culture (OD 600). The format is cell-based. As to conditions: 10.0%, 2.0%, 0.40%, 0.08%, 0.02%. The procedure:
Agrobacterium tumefaciens strain GV3101 was inoculated into Luria broth medium (LB) and grown for 20 hours. Initially the optical density (OD) of the culture was measured at a wavelength of 600 nm using a spectrophotometer and normalized to a low starting density. The cultures were then divided equally and treated with similar proportions of thionins that are representative of mixtures used to treat citrus trees. The ratios of Cs.thionin (SEQ ID NO: 651), As.thionin (SEQ ID NO: 652) and Mt.thionin (SEQ ID NO: 653) used were 10.0%, 2.0%, 0.40%, 0.08%, and 0.02% and were prepared to match the 20 mL total volume of filtrate of each of the thionin mixtures that is used as a treatment per tree. Each thionin mixture was also compared to control mixtures containing only: filtrate, minimal media (LB), or a tetracycline (Tet) antibiotic (10 μg/mL per culture). Each bar represents a combined OD measure of 3 replicates. After incubation with the thionin and antibiotic mixtures, the optical density (OD 600) was measured again to determine if growth of the Agrobacterium cultures was reduced or inhibited.

Assay [7] deals with soybean. The experiment in a line: Foliar application to soybean, field yield trials. Format: in vivo. As to conditions: for Average Bu/Ac Increase compared to Control Variety 1 and 2 / Average Total Yield Bu/Ac Variety 1 and 2 / Average Total Yield Bu/Ac Variety 2: foliar at R2, 7 US Midwest locations; for Average Total Yield Bu/Ac Variety 2: AG3536.
In assay [8] the test system is soybean. The assay is described as follows: Foliar application to soybean, field yield trials. Format: in vivo. As to conditions: foliar at R2, AG2836, 7 US Midwest locations.
For assay [9], the system named is Candidatus Liberibacter asiaticus. As to conditions: in vivo.
Assay [10] relates to corn. The format is in vivo.
For assay [11], the system named is corn. The experiment in a line: Foliar application to corn in growth room, plant height (non-stress, heat and water deficit stress).
In assay [12] the test system is soybean. The experiment in a line: Foliar application to soybean in growth room, plant height (non-stress, heat and water deficit stress). Format: in vivo. How it is done:
Ec.Flg22 (SEQ ID NO: 527) was applied to soybean (Beck's 297NR).
Plant height (cm) was measured just prior to the foliar application delivered at 3 weeks and then again 2 weeks later when the plants were 5-weeks-old. Two replicate trials were conducted using 18 plants per trial.
Soybean plants were grown as described in Example 6. The At.PSKα polypeptide (SEQ ID NO: 598) was applied as a foliar spray to the plants at the V1-V4 stage. Soybean plants treated with foliar applications of At.PSKα and control plants treated with water and surfactant alone were then grown in conditions described in Examples 7-9 that produced a non-stress and stress (heat and water deficit) environments. Table 37 describes the percentage change or increase in height reported for soybean plants treated with At.PSKα as a foliar spray at the V1-V4 growth stage.
RHPP bioactive priming polypeptide (SEQ ID NO: 600) was also applied as foliar treatment to R1 stage hybrid soybean (Beck's 297R4) with 0.1% (v/v) non-ionic surfactant ([…] SURFACE) using a spray bottle delivering approximately 1.2 ml/plant. This experiment was performed to look at the effects of RHPP on plant growth and was conducted using a total of 18 plants per treatment group. […] R1 stage soybean plants were treated with nothing (non-treated control), […] SURFACE surfactant applied at a concentration of 0.1% (v/v) or the RHPP polypeptide (300 nM) applied in combination with […] SURFACE surfactant (0.1% v/v). Height for each plant was recorded at the time of spray and again at 16 days post foliar application and average growth parameters were compared between foliar treatments (Table 39).

Non-standard residues stand in square brackets, D forms with d. No end group written: not given here. sY = N[C@@H](Cc1ccc(OS(=O)(=O)O)cc1)C(=O)O

With “TRLSSGLKINSAKDDAAGLQIA (listed as Pseudomonas syringae) [Flg22-PSA, Flg22 from Pseudomonas syringae pv. actinidiae]”, the “Average Total Relative Light Units (RLUs); SEM in parentheses” value in [1] (Kiwi 'Hayward' leaf petiole slices, 40 minutes time course) is listed as 124,550 RLU. In assay [1] (Kiwi 'Hayward' leaf petioles), the “ROS production relative to Bt4Q7Flg22 (%)” value amounted to 262%. Besides, in assay [2] (6, 16 and 23 DAI), the “PSA-V leaf spot symptoms vs untreated control” value is recorded as “significantly reduced PSA-V leaf spot symptoms”. Further, the “less leaf spot compared to untreated control” value in [2] (combination with Flg22-PSA pre-treatment (partner not given), 29 DAI) amounted to 14.3%. Besides, in assay [3], the “Avg. Activity (%) Corn (5828 YX) 5 nM polypeptide” value came to 154.4%. The “Avg. Activity (%) Soybean (297 R4) 100 nM polypeptide” value in [4] turned out to be 113.1%.
In the case of “ESTNILQRMRELAVQSRNDSNSATDREA (listed as Pseudomonas syringae) [Ps.tomato FlgII-28, FlgII-28 from Pseudomonas syringae pv. tomato DC3000]”, in [5] (5 nM), the “RLU relative to Bt.4Q7Flg22 at the same concentration” value is on record as ~31 × and the ROS response result was “strong ROS response”. The ROS response result in assay [5] (100 nM) is “strong ROS response”.
In the case of “Cs.thionin: thionin polypeptide, applied as filtrate (RVCQSQSHHFHGACFSHHNCAFVCRNEGFSGGKCRGVRRRCFCSKLC; applied as filtrate; listed as Citrus sinensis)”, the “growth of Agrobacterium cultures vs filtrate, LB or Tet controls” value in assay [6] is “dose dependent response and decreased growth”.
Take Gm RHPP (GGIRAAPTGNER; Glycine max): the figures for the “Average Bu/Ac Increase compared to Control Variety 1 and 2” value in the assay with soybean [7] (use rate 4.0 Fl. oz/Ac) and in the assay on soybean [7] (use rate 8.0 Fl. oz/Ac) were “+1.26 Bu/Ac” and “+0.51 Bu/Ac”, respectively. Further, the “Average Total Yield Bu/Ac Variety 1 and 2” value is given as 61.83 Bu/Ac in the assay on soybean [7] (use rate 4.0 Fl. oz/Ac) and 61.08 Bu/Ac in the assay with soybean [7] (use rate 8.0 Fl. oz/Ac). The “Average Total Yield Bu/Ac Variety 2” value was found to be 66.35 Bu/Ac in the assay with soybean [7] (use rate 4.0 Fl. oz/Ac) and 62.46 Bu/Ac in the assay on soybean [7] (use rate 8.0 Fl. oz/Ac). In addition, the “Average Total Yield Bu/Ac Variety 1” value stood at 58.61 Bu/Ac with soybean [8] (use rate 4.0 Fl. oz/Ac) and 59.47 Bu/Ac in the assay with soybean [8] (use rate 8.0 Fl. oz/Ac).
“thionin tagged: thionin polypeptide comprising a phloem localization sequence (printed SEQ ID NO: 650) (RTCESQSHRFKGPCSRDSNCATVCLTEGFSGGDCRGFRRRCRCTRPCVFDEK)”: in assay [9], the “Ct values vs control trees” value is “higher average Ct values” and the “average Ct value vs un-tagged thionin” value is recorded as “higher average Ct value at T56”.
For the substance “Mt.thionin: thionin polypeptide, applied as filtrate (RTCESQSHRFKGPCSRDSNCATVCLTEGFSGGDCRGFRRRCRCTRPCVFDEK; applied as filtrate)”, the “growth of Agrobacterium cultures vs filtrate, LB or Tet controls” value in [6] is “dose dependent response and decreased growth”.
As for “A.spp.FlgII28: FlgII-28 from Aneurinibacillus sp. XH2 (EIHEMLQRMRELAVQAANGTYSDKDKKA; listed as Aneurinibacillus sp.)”, the ROS response entry in assay [5] (5 nM) was “equally low ROS response”.
Regarding “Tyr(SO3H)-I-Tyr(SO3H)-TQ ([sY]I[sY]TQ; listed as Arabidopsis thaliana) [At.PSKα, Phytosulfokine alpha, Arabidopsis thaliana]”, the “Bu/Ac Foliar Corn (yield increase)” value in the assay on corn [10] (1 μM foliar spray with surfactant at V5-V8, corn hybrid 5140RR, vs water control) turned out to be 3.0 Bu/Ac. In addition, the yield increase with corn [10] (foliar 1 μM, V5-V8, hybrid 5140RR, one location) turned out to be 3 Bu/Ac; in the assay on soybean [7] (foliar 1 μM, V1-V4, hybrid 375 NR, one location), 0.8 Bu/Ac. For the same substance, in the assay on corn [11] (5 weeks, control surfactant 0.01% v/v, HpaG-like 1 μM, At.PSKα 100 nM), the “Plant Height Normalized as a percentage of control height Non-stress” value is 98.2%. Also, the “Plant Height Normalized as a percentage of control height Stress” value with corn [11] (5 weeks, heat and water deficit stress, control surfactant 0.01% v/v, HpaG-like 1 μM, At.PSKα 100 nM) is given as 107.8%. Besides, the “growth phenotype vs control” value in the assay on corn [11] (foliar (HpaG-like 1 μM, PSKα), heat and water deficit stress) is recorded as “improved growth phenotype”. Further, the “Height (cm) after stress 5 weeks” value in the assay with corn [11] (heat and water deficit stress, HpaG-like 1 μM, At.PSKα 100 nM foliar) was determined as 54.88 cm. In addition, the “Height (cm) after non-stress 5 weeks” value in the assay on corn [11] (non-stress growth room, HpaG-like 1 μM, At.PSKα 100 nM foliar) stood at 58.62 cm. In the assay on soybean [7] (1 μM foliar spray with surfactant at V1-V4, soybean hybrid 375 NR, vs water control), the “Bu/Ac Foliar Soybean (yield increase)” value stood at 0.8 Bu/Ac. Besides, the “increase in height vs control” value with soybean [12] (foliar at V1-V4, non-stress environment) is given as 3.5%; with soybean [12] (foliar at V1-V4, stress (heat and water deficit) environment) it was 4.3%. In addition, in the assay on soybean [12] (foliar spray at V1-V4, heat and water deficit stress), the “Percentage (%) change in Height in Stress Environment Soybean with At.PSKα over control” value was 4.3%. Also, the “Percentage (%) change in Height in Non-Stress Environment Soybean with At.PSKα over control” value in the assay on soybean [12] (foliar spray at V1-V4, non-stress) was determined as 3.5%.

These data come from patent publication US12268727B2, “Bioactive polypeptides for improvements in plant protection, growth and productivity” (priority 2017, dated 2025).
